We go through ten molecules from patent US20210347805A1, “AZITHROMYCIN DERIVATIVES CONTAINING A PHOSPHONIUM ION AS ANTICANCER AGENTS” (RISING TIDE FOUNDATION, priority 2018, published 2021).

One assay deals with MDA-231 cancer cells. The assay can be described thus: Inhibition of proliferation assay: cell confluence (IncuCyte live cell imaging). The format is cell-based. Conditions: MDA-231 cells; compound at 10 μM; IncuCyte imaging over 4-5 d. An excerpt: The confluence value is a surrogate for cell proliferation and growth. The value is expressed as a percent confluence, which represents the fraction of culture dish-surface that is occupied by cells. As the number of cells in the dish increases over time due to proliferation, so will their coverage of that surface increase. Expansion of the cell population on the cell culture-dish surface and confluence have mostly a linear relationship until the cells on the plate surface begin to reach saturation or maximum density. Confluence is determined based on image analysis. Image based software can identify objects in the image field base on changes to pixel density in a grey scale image. The software can then assign a mask to those pixels within the object. Objects can be ‘gated’ out based on size and shape. To determine cell confluence, images of cells are first masked as objects. The surface area of the image that is masked is measured and compared to the total surface area of the culture dish surface to obtain a percent confluence. MDA-231 cancer cells were obtained from ATCC. Cells were cultured in Dulbecco's Modified Eagle Medium (DMEM) supplemented with 10% Fetal Bovine Serum (FBS), 2 mM Glutamax, 1 mM Non Essential Amino Acid (NEAA) solution and 1 mM sodium pyruvate. […] Final DMSO concentrations were ≤0.1%. Images were acquired with an IncuCyte Live Cell Imaging microscopy (Essen Bioscience) at every 3 h under cell culture conditions with 10× objective over 4-5 d. Cell confluence was calculated from one field of view per well using the IncuCyte in-built algorithm. Relative confluence values were obtained by normalising each value to the time zero value in each sample.
Consider `CC[C@H]1OC(=O)[C@H](C)[C@@H](O[C@H]2C[C@@](C)(OC)[C@@H](O)[C@H](C)O2)[C@H](C)[C@@H](O[C@@H]2O[C@H](C)C[C@H](N(C)C)[C@H]2O)[C@](C)(O)C[C@@H](C)CN(C(=O)CCCCCCCCCCCCC[P+](c2ccccc2)(c2ccccc2)c2cnn(C)c2)[C@H](C)[C@@H](O)[C@]1(C)O.[Cl-]` [Example 1, {14-[(2R,3S,4R,5R,8R,10R,11R,12S,13S,14R)-11-{[(2S,3R,4S,6R)-4-(dimethylamino)-3-hydroxy-6-methyloxan-2-yl]oxy}-2-ethyl-3,4,10-trihydroxy-13-{[(2R,4R,5S,6S)-5-hydroxy-4-methoxy-4,6-dimethyloxan-2-yl]oxy}-3,5,8,10,12,14-hexamethyl-15-oxo-1-oxa-6-azacyclopentadecan-6-yl]-14-oxotetradecyl}(1-methyl-1H-pyrazol-4-yl)diphenylphosphonium chloride], for which the “% Confluence” value was 4.3%.

For the molecule `CC[C@H]1OC(=O)[C@H](C)[C@@H](O[C@H]2C[C@@](C)(OC)[C@@H](O)[C@H](C)O2)[C@H](C)[C@@H](O[C@@H]2O[C@H](C)C[C@H](N(C)C)[C@H]2O)[C@](C)(O)C[C@@H](C)CN(C(=O)CCCCCC[P+](c2cc(C)cc(C)c2)(c2cc(C)cc(C)c2)c2cc(C)cc(C)c2)[C@H](C)[C@@H](O)[C@]1(C)O.[Cl-]` [Example 7, {7-[(2R,3S,4R,5R,8R,10R,11R,12S,13S,14R)-11-{[(2S,3R,4S,6R)-4-(dimethylamino)-3-hydroxy-6-methyloxan-2-yl]oxy}-2-ethyl-3,4,10-trihydroxy-13-{[(2R,4R,5S,6S)-5-hydroxy-4-methoxy-4,6-dimethyloxan-2-yl]oxy}-3,5,8,10,12,14-hexamethyl-15-oxo-1-oxa-6-azacyclopentadecan-6-yl]-7-oxoheptyl}tris(3,5-dimethylphenyl)phosphonium chloride], the “% Confluence” value came to 4.6%.

For the molecule `CC[C@H]1OC(=O)[C@H](C)[C@@H](O[C@H]2C[C@@](C)(OC)[C@@H](O)[C@H](C)O2)[C@H](C)[C@@H](O[C@@H]2O[C@H](C)C[C@H](N(C)C)[C@H]2O)[C@](C)(O)C[C@@H](C)CN(C(=O)CCCCCCCCCCC[P+](c2ccccc2)(c2ccccc2)c2cnn(C3CCC3)c2)[C@H](C)[C@@H](O)[C@]1(C)O.[Cl-]` [Example 4, (1-cyclobutyl-1H-pyrazol-4-yl)({12-[(2R,3S,4R,5R,8R,10R,11R,12S,13S,14R)-11-{[(2S,3R,4S,6R)-4-(dimethylamino)-3-hydroxy-6-methyloxan-2-yl]oxy}-2-ethyl-3,4,10-trihydroxy-13-{[(2R,4R,5S,6S)-5-hydroxy-4-methoxy-4,6-dimethyloxan-2-yl]oxy}-3,5,8,10,12,14-hexamethyl-15-oxo-1-oxa-6-azacyclopentadecan-6-yl]-12-oxododecyl})diphenylphosphonium chloride], the “% Confluence” value came out at 4.4%.

Turning to `CC[C@H]1OC(=O)[C@H](C)[C@@H](O[C@H]2C[C@@](C)(OC)[C@@H](O)[C@H](C)O2)[C@H](C)[C@@H](O[C@@H]2O[C@H](C)C[C@H](N(C)C)[C@H]2O)[C@](C)(O)C[C@@H](C)CN(C(=O)CCCCCCCCCCC[P+](c2ccccc2)(c2ccccc2)c2cnn(C(C)(C)C)c2)[C@H](C)[C@@H](O)[C@]1(C)O` [Example 3, (1-tert-butyl-1H-pyrazol-4-yl)({12-[(2R,3S,4R,5R,8R,10R,11R,12S,13S,14R)-11-{[(2S,3R,4S,6R)-4-(dimethylamino)-3-hydroxy-6-methyloxan-2-yl]oxy}-2-ethyl-3,4,10-trihydroxy-13-{[(2R,4R,5S,6S)-5-hydroxy-4-methoxy-4,6-dimethyloxan-2-yl]oxy}-3,5,8,10,12,14-hexamethyl-15-oxo-1-oxa-6-azacyclopentadecan-6-yl]-12-oxododecyl})diphenylphosphonium chloride], the “% Confluence” value is 4%.

As for `CC[C@H]1OC(=O)[C@H](C)[C@@H](O[C@H]2C[C@@](C)(OC)[C@@H](O)[C@H](C)O2)[C@H](C)[C@@H](O[C@@H]2O[C@H](C)C[C@H](N(C)C)[C@H]2O)[C@](C)(O)C[C@@H](C)CN(C(=O)CCCCCCCCCCCC[P+](C2CCCC2)(C2CCCC2)C2CCCC2)[C@H](C)[C@@H](O)[C@]1(C)O.[Cl-]` [Example 9, tricyclopentyl({13-[(2R,3S,4R,5R,8R,10R,11R,12S,13S,14R)-11-{[(2S,3R,4S,6R)-4-(dimethylamino)-3-hydroxy-6-methyloxan-2-yl]oxy}-2-ethyl-3,4,10-trihydroxy-13-{[(2R,4R,5S,6S)-5-hydroxy-4-methoxy-4,6-dimethyloxan-2-yl]oxy}-3,5,8,10,12,14-hexamethyl-15-oxo-1-oxa-6-azacyclopentadecan-6-yl]-13-oxotridecyl})phosphonium chloride], the “% Confluence” value amounted to 4%.

Consider `CC[C@H]1OC(=O)[C@H](C)[C@@H](O[C@H]2C[C@@](C)(OC)[C@@H](O)[C@H](C)O2)[C@H](C)[C@@H](O[C@@H]2O[C@H](C)C[C@H](N(C)C)[C@H]2O)[C@](C)(O)C[C@@H](C)CN(C)[C@H](C)[C@@H](O)[C@]1(C)O` [Azithromycin], for which the “% Confluence” value came out at 99.1%.

`CC[C@H]1OC(=O)[C@H](C)[C@@H](O[C@H]2C[C@@](C)(OC)[C@@H](O)[C@H](C)O2)[C@H](C)[C@@H](O[C@@H]2O[C@H](C)C[C@H](N(C)C)[C@H]2O)[C@](C)(O)C[C@@H](C)CN(C(=O)CCCCCCCCCCCC[P+](c2ccccc2)(c2ccccc2)c2cnn(C(C)C)c2)[C@H](C)[C@@H](O)[C@]1(C)O` [Example 2, {13-[(2R,3S,4R,5R,8R,10R,11R,12S,13S,14R)-11-{[(2S,3R,4S,6R)-4-(dimethylamino)-3-hydroxy-6-methyloxan-2-yl]oxy}-2-ethyl-3,4,10-trihydroxy-13-{[(2R,4R,5S,6S)-5-hydroxy-4-methoxy-4,6-dimethyloxan-2-yl]oxy}-3,5,8,10,12,14-hexamethyl-15-oxo-1-oxa-6-azacyclopentadecan-6-yl]-13-oxotridecyl}diphenyl[1-(propan-2-yl)-1H-pyrazol-4-yl]phosphonium chloride]: the “% Confluence” value was determined as 5.1%.

Consider `CC[C@H]1OC(=O)[C@H](C)[C@@H](O[C@H]2C[C@@](C)(OC)[C@@H](O)[C@H](C)O2)[C@H](C)[C@@H](O[C@@H]2O[C@H](C)C[C@H](N(C)C)[C@H]2O)[C@](C)(O)C[C@@H](C)CN(C(=O)CCCCCCCCCCCCC[P+](c2ccccc2)(c2ccccc2)C2CCOCC2)[C@H](C)[C@@H](O)[C@]1(C)O.[Cl-]` [Example 8, {14-[(2R,3S,4R,5R,8R,10R,11R,12S,13S,14R)-11-{[(2S,3R,4S,6R)-4-(dimethylamino)-3-hydroxy-6-methyloxan-2-yl]oxy}-2-ethyl-3,4,10-trihydroxy-13-{[(2R,4R,5S,6S)-5-hydroxy-4-methoxy-4,6-dimethyloxan-2-yl]oxy}-3,5,8,10,12,14-hexamethyl-15-oxo-1-oxa-6-azacyclopentadecan-6-yl]-14-oxotetradecyl}(oxan-4-yl)diphenylphosphonium chloride], for which the “% Confluence” value was determined as 5.5%.

As to `CC[C@H]1OC(=O)[C@H](C)[C@@H](O[C@H]2C[C@@](C)(OC)[C@@H](O)[C@H](C)O2)[C@H](C)[C@@H](O[C@@H]2O[C@H](C)C[C@H](N(C)C)[C@H]2O)[C@](C)(O)C[C@@H](C)CN(C(=O)CCCCCC[P+](c2cc(C)cc(C)c2)(c2cc(C)cc(C)c2)c2cnn(C(C)C)c2)[C@H](C)[C@@H](O)[C@]1(C)O.[Cl-]` [Example 6, {7-[(2R,3S,4R,5R,8R,10R,11R,12S,13S,14R)-11-{[(2S,3R,4S,6R)-4-(dimethylamino)-3-hydroxy-6-methyloxan-2-yl]oxy}-2-ethyl-3,4,10-trihydroxy-13-{[(2R,4R,5S,6S)-5-hydroxy-4-methoxy-4,6-dimethyloxan-2-yl]oxy}-3,5,8,10,12,14-hexamethyl-15-oxo-1-oxa-6-azacyclopentadecan-6-yl]-7-oxoheptyl}bis(3,5-dimethylphenyl)[1-(propan-2-yl)-1H-pyrazol-4-yl]phosphonium chloride], the “% Confluence” value stood at 15.3%.

As to `CC[C@H]1OC(=O)[C@H](C)[C@@H](O[C@H]2C[C@@](C)(OC)[C@@H](O)[C@H](C)O2)[C@H](C)[C@@H](O[C@@H]2O[C@H](C)C[C@H](N(C)C)[C@H]2O)[C@](C)(O)C[C@@H](C)CN(C(=O)CCCCCCC[P+](c2cc(C)cc(C)c2)(c2cc(C)cc(C)c2)c2cnn(C(C)C)c2)[C@H](C)[C@@H](O)[C@]1(C)O.[Cl-]` [Example 5, {8-[(2R,3S,4R,5R,8R,10R,11R,12S,13S,14R)-11-{[(2S,3R,4S,6R)-4-(dimethylamino)-3-hydroxy-6-methyloxan-2-yl]oxy}-2-ethyl-3,4,10-trihydroxy-13-{[(2R,4R,5S,6S)-5-hydroxy-4-methoxy-4,6-dimethyloxan-2-yl]oxy}-3,5,8,10,12,14-hexamethyl-15-oxo-1-oxa-6-azacyclopentadecan-6-yl]-8-oxooctyl}bis(3,5-dimethylphenyl)[1-(propan-2-yl)-1H-pyrazol-4-yl]phosphonium chloride], the “% Confluence” value is 23.1%.

The same assay, now with this note: MDA-231 cells; compound at 100 μM; IncuCyte imaging over 4-5 d.
Consider `CC[C@H]1OC(=O)[C@H](C)[C@@H](O[C@H]2C[C@@](C)(OC)[C@@H](O)[C@H](C)O2)[C@H](C)[C@@H](O[C@@H]2O[C@H](C)C[C@H](N(C)C)[C@H]2O)[C@](C)(O)C[C@@H](C)CN(C)[C@H](C)[C@@H](O)[C@]1(C)O` [Azithromycin], for which the “% Confluence” value is listed as 17%.
